“Also recorded” adds a separate entry of the source.
Tests used:
[1] = system: hESC-CM biowires (Hes2); format: cell-based, human
Procedure: After preculture for 7 days, biowires were randomly transferred to 6-well plates and cultured in StemPro-34 media in the absence or presence of Isoproterenol (100 nM), Angiotensin II (200 nM [17]) or Endothelin-1 (150 nM)(Sigma) for 7 days. This protocol was chosen to replicate the chronic treatment of mice as described. […] Isolated single cells were seeded on Matrigel-coated glass cover slips before cell area and calcium transient measurements were performed. Immunostaining and Fluorescence Microscopy. Immunostaining was performed using the following antibodies: mouse anti-cTNT (1:100, Thermo Scientific; MS-295-P1), mouse anti-α-actinin (1:200, Abcam, ab9465), anti-mouse-Alexa Fluor 488 (1:400, Invitrogen, A21202), anti-rabbit-TRITC (1:400, Invitrogen, 81-6114). DAPI was used to counterstain nuclei. Phalloidin Alexa Fluor 660 (1:1000, Invitrogen, A22285) was used to detect actin fibers. The stained cells were visualized using a fluorescence microscope (Leica CTR6000) and images captured using the Leica Application Suite software. For confocal microscopy cells were visualized using a fluorescence confocal microscope (Zeiss LSM-510). Transmission Electron Microscopy (TEM). Tissue was fixed with 4% Paraformaldehyde, 1% Glutaraldehyde in 0.1 M PBS for at least 1 hr and washed 3 times with PBS pH 7.2. Post-fixation was done with 1% Osmium Tetraoxide in 0.1 M PBS, pH 7.2 for 1 hr and dehydrated using ethanol series from 25 to 100%. Tissue was infiltrated using Epon resin and polymerized in plastic dishes at 40° C. for 48 hr. Tissue was stained with Uranyl Acetate and Lead Citrate after sectioning. Imaging was performed at Hitachi H-7000 transmission electron microscope.

[2] = system: hESC-CM biowires (Hes2); assay: Chronic drug exposure: ELISA of soluble BNP in conditioned media; format: cell-based, human
Procedure: (§1) After preculture for 7 days, biowires were randomly transferred to 6-well plates and cultured in StemPro-34 media in the absence or presence of Isoproterenol (100 nM), Angiotensin II (200 nM [17]) or Endothelin-1 (150 nM)(Sigma) for 7 days. This protocol was chosen to replicate the chronic treatment of mice as described. […] Isolated single cells were seeded on Matrigel-coated glass cover slips before cell area and calcium transient measurements were performed. ELISA. Quantification of soluble BNP from the conditioned media was performed using commercially available ELISA kits.

[3] = system: hESC-CM biowires (Hes2); assay: Chronic drug exposure of biowires: quantitative RT-PCR of fetal gene program; format: cell-based, human; conditions: 7 days treatment: ISO 100 nM, Et-1 150 nM, AngII 200 nM, vs untreated control
Procedure: as §1, with “performed.” for “performed. ELISA. Quantification of soluble BNP from the conditioned media was performed using commercially available ELISA kits.”
Quantitative RT-PCR. RT-PCR was performed as previously described. Total RNA was prepared with the High Pure RNA Isolation Kit (Roche) and treated with RNase-free DNase (Roche). RNA was reverse transcribed into cDNA using random hexamers and Oligo (dT) with SuperScript VILO (Invitrogen). RT-qPCR was performed on a LightCycler 480 (Roche) using LightCycler 480 SYBR Green I Master (Roche). Expression levels were normalized to the housekeeping genes TATA box binding protein (TBP) or Glyceraldehyde 3-phosphate dehydrogenase (GAPDH).

[4] = system: hESC-derived CMs 3D tissues; assay: Chronic drug exposure: cell viability in 3D tissues by live/dead staining; format: cell-based, human; conditions: vs non-treated controls
[5] = system: hESC-CM biowires (Hes2); assay: Chronic drug exposure: conduction velocity by optical mapping upon point stimulation; format: cell-based, human; conditions: point stimulation at the end of cultivation, vs non-treated controls
Procedure: Optical Mapping. […] Imaging was performed at 200 frames/s. […] Data analysis was performed using BrainVision software (Scimedia).

[6] = system: hESC-derived CMs 3D tissues; format: cell-based, human
Procedure: Alternatively, to measure the force generated by the 3D engineered cardiac tissues, a bioreactor consisting of a PDMS tissue chamber capable of housing 8 micotissues was employed. […] Briefly, each well of the PDMS chamber had two posts which served as anchoring points for each cardiac tissue during gel compaction. Furthermore, by tracking a post's deflection, the force of contraction a cardiac tissue generated was determined. Cardiac tissues underwent 7 days of pre-culture followed by 7 days of treatment with endothelin-1, angiotensin II or isoproterenol. After the treatment, the contractile force of each cardiac tissue was determined by video recording, one at a time, the top surface of a post for each cardiac tissue while being paced at 0.5 or 1 Hz using CellSens software (Olympus). Each video was then exported as a series of Tiff images and opened in ImageJ. […] Using the method of superposition for a cantilever beam-partial uniform deflection, a point force was calculated and then normalized to the tissues cross sectional area (assumed circular) to determine the cardiac force per area.

[7] = system: human cardiac tissue strands (hESC, Hes2 derived cardiomyocytes); assay: Biorod drug testing: tissue beating pattern and contractile force by polymer wire deflection; format: cell-based
Procedure: Cardiomyocytes were derived from human embryonic stem cell lines (hESC, Hes2). Embryoid bodies (EBs) were differentiated to the cardiovascular lineage and disassociated as previously described in Device 1 Methods. Before cell seeding, micro-well surface was rinsed with 5% (w/v) Pluronic Acid (Sigma P2443) and then air dried in the bio-safety cabinet. hESC derived cardiomyocytes were suspended at 200 million/ml (unless specified otherwise) in Collagen Type I based gel (3.0 mg/ml of rat tail collagen type I (BD Biosciences) neutralized by 1N NaOH and 10×M199 media as described by the manufacturer) with the supplements of […], 1% (v/v) HEPES, 10% (v/v) Matrigel (BD Biosciences), and […]. Suspended cardiomyocytes were then seeded into the cell culture channel (2.5 μl per well). After 30 min incubation at 37° C. to induce the gelation, appropriate media were added. After seeding, cells were kept in culture for 7 days to allow collagen matrix remodeling and assembly around the wires. Cardiac tissue strands were kept in culture for up to 21 days with media change every 2-3 days. Preferably, the tissue strands should be kept in culture for at least 2 weeks to allow for maturation; however there is no limitation on the maximum culture duration. Cardiac tissue strands were seeded to observe the stability and reproducibility of tissue in long term culture. After seeding, brightfield images (see FIG. 39A for an example) of the tissue strands were taken every day (n=3 per group) using optical microscope (Olympus CKX41) and the diameters of the tissue strands at four distinct locations were analyzed with imageJ (see FIG. 39B for an example). Tissue strand lengths were also analyzed with same method.
Tissue contractile behavior tracing and measurement was carried out. POMac is auto-fluorescent at a wide range of wavelenths; therefore the wires were imaged with a fluorescence microscope under DAPI channel (e.g. 461 nm wavelength) to trace the bending movements of the wires. The POMac is auto-fluorescent at a wide range of wavelengths, including under FITC and Tritc channels. Images were taken at 25 frames per second (fps) (see FIG. 39C). Image sequences were analyzed with ImageJ software using tracking plugin. To calculate the forces originated from cardiac tissues, beam deflection formula with uniformly distributed load in the middle section was used here. […] The engineered cardiac tissues were paced at 2 Hz frequency. From this image sequence, contraction and relaxation time of beating can be estimated. […] Tissue stretching wires can be considered uniformly distributed Load, Wo (Load per force bearing length), which can be calculated with displacement of center point of wires in image sequence, and F can be calculated as well. […] Briefly, entire beam length was L. Section of wire with tissue wrapping around it was experiencing load. Here, the load was assumed to be evenly distributed throughout this section, and Wo was load per length. […] The distance between side of the tissue and a well wall is a, which was assumed equal for both sides. The deflection at center point was y.
Drug testing was carried out.

[8] = system: Hes2 hESC derived cardiomyocytes; format: cell-based, human; conditions: single cells dissociated at end of 7 days treatment, cardiac troponin T staining
Procedure: as §1, with “performed.” for “performed. ELISA. Quantification of soluble BNP from the conditioned media was performed using commercially available ELISA kits.”

[9] = system: hESC-derived cardiomyocyte tissue strands; assay: NO treatment of perfusable human cardiac tissue strands, beating activity by image analysis; format: cell-based; conditions: 24 hr NO treatment by perfusion of 200 mM SNP
Procedure: (§2) NO treatment of human cardiac tissue strands was carried out. On day 7, the NO treatment of human cardiac tissue strand was initiated by perfusing the 200 mM SNP solution and the peristaltic pump was stopped once the SNP solution was perfused through the tubing. The beating activities of the human cardiac tissue strands were recorded at 16.67 frames/second before treatment and 24 hr post-treatment by Olympus IX81 while the tissue strands were kept at 37° C. The beating activities of the human cardiac tissue strands were quantified by the image analysis method described by Sage et al^28. In brief, the movements of one spot at the same location on the human cardiac tissue strand before and after the NO treatment were characterized.

[10] = system: hESC-derived cardiomyocyte tissue strands; assay: α-actinin immunostaining and confocal microscopy of NO-treated tissue strands; format: cell-based, human; conditions: NO treatment by perfusion, vs control tissue strands
Procedure: Tissue strands were fixed with 4% parafornaldehyde, permeablized by 0.25% Triton X-100, and blocked by 10% bovine serum albumin (BSA). Immunostaining was performed using the following antibodies: mouse anti-cardiac Troponin T (cTnT) (Abcam; 1:100), mouse anti-α-actinin (Abcam; 1:200) and anti-rabbit-TRITC (Invitrogen; 1:200), anti-mouse-TRITC (Jackson Immuno Research; 1:200). Nuclei were counterstained with 4′,6-diamidino-2-phenylindole (DAPI) (Biotium; 1:100). Phalloidin-Alexa 660 (Introgen; 1:600) was used to stain F-actin fibers. For confocal microscopy, the stained cardiac tissue strands were visualized under an inverted confocal microscope (Olympus IX81) or an upright confocal microscope (Zeiss LSM 510).
as §2, with “In brief, the movements of one spot at the same location on the human cardiac tissue strand before and after the NO treatment were characterized.” left out

## CC(C)NCC(O)c1ccc(O)c(O)c1 (centres unmarked) [ISO, Isoproterenol]
[1]
  contractile apparatus (transmission electron microscopy): significant absence of distinct Z-disks and the lack of a defined sarcomere structure
[2]; chronic treatment
  BNP in the conditioned media: BNP can also be found in the conditioned media
[2]; day 2 post-treatment, media conditioned for 48 h
  increase in the secretion of BNP: 2.5 fold
[2]; day 7, media conditioned for 24 h
  increase of BNP in the media: 70%
[3]
  ANF and BNP gene expression (fetal gene program): significantly induced
[3]; listed as Isoproterenol
  ANF and BNP gene expression (fetal gene program): induction of brain natriuretic peptide (BNP) and atrial natriuretic factor (ANF) gene expression
[4]
  cell viability (live/dead staining): no differences
[5]
  conduction velocity: the same
[6]
  force of contraction: significantly reduced force of contraction
[7]; 100 nM
  tissue contractile forces normalized to forces before drug addition: positive inotropic action
[7]; 1 μM
  tissue contractile forces normalized to forces before drug addition: positive inotropic action
[7]; 10 μM
  tissue contractile forces normalized to forces before drug addition: slight negative inotropic effect
[7]; summary statement
  response of human cardiac tissues to well-known drugs: responded appropriately
[8]
  increase in cell size: 35%

## [N]=O [NO, nitric oxide]
[9]; vs basal level
  spontaneous beating of human cardiac tissue strands: significantly slowed down the beating
[9]; n=3
  beating frequency after NO treatment normalized to the basal level: 74±3%
[10]
  α-actinin structure (cytoskeleton) of cardiomyocytes: disrupted α-actinin structure; also recorded: overall punctate pattern
